Data reported in PubChem BioAssay (NCI).
“And” between values parts separate entries of the source, which are not always exact repeats. Equal values may be shown once.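 Dose response: 5 concentrations. Exposure: 48 h. Format: 96-well plates. Endpoint: linear interpolation; highest concentration if not reached. Abbreviation: GI50, concentration required for 50% inhibition of growth. Definition used: TGI = concentration required for complete inhibition of growth.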

What was measured:
Assay in all cases: NCI tumour cell line growth inhibition, 48 h; in the data active means GI50 below about 0.43 µM; inactive means the rest
HT29 colon = system: HT29 colon
RPMI-8226 leukemia = system: RPMI-8226 leukemia
OVCAR-4 ovarian = system: OVCAR-4 ovarian
HCC-2998 colon = system: HCC-2998 colon
SNB-19 CNS = system: SNB-19 CNS
U251 CNS = system: U251 CNS
A498 renal = system: A498 renal
SNB-75 CNS = system: SNB-75 CNS
PC-3 prostate = system: PC-3 prostate
CAKI-1 renal = system: CAKI-1 renal
SK-MEL-28 melanoma = system: SK-MEL-28 melanoma
HOP-92 NSCLC = system: HOP-92 NSCLC
NCI-H460 lung = system: NCI-H460 lung
NCI-H23 lung = system: NCI-H23 lung
SF-268 CNS = system: SF-268 CNS
SK-MEL-2 melanoma = system: SK-MEL-2 melanoma
IGROV1 ovarian = system: IGROV1 ovarian
M14 melanoma = system: M14 melanoma
MALME-3M melanoma = system: MALME-3M melanoma
SK-MEL-5 melanoma = system: SK-MEL-5 melanoma
MDA-MB-231 breast = system: MDA-MB-231 breast
786-0 renal = system: 786-0 renal
COLO 205 colon = system: COLO 205 colon
NCI/ADR-RES ovarian = system: NCI/ADR-RES ovarian
RXF 393 renal = system: RXF 393 renal
OVCAR-5 ovarian = system: OVCAR-5 ovarian
HS 578T breast = system: HS 578T breast
HOP-62 NSCLC = system: HOP-62 NSCLC
OVCAR-3 ovarian = system: OVCAR-3 ovarian
OVCAR-8 ovarian = system: OVCAR-8 ovarian
BT-549 breast = system: BT-549 breast
SW-620 colon = system: SW-620 colon
SK-OV-3 ovarian = system: SK-OV-3 ovarian
UO-31 renal = system: UO-31 renal
HL-60(TB) leukemia = system: HL-60(TB) leukemia
MDA-MB-435 = system: MDA-MB-435
KM12 colon = system: KM12 colon
EKVX NSCLC = system: EKVX NSCLC
MCF7 breast = system: MCF7 breast
CCRF-CEM leukemia = system: CCRF-CEM leukemia
SF-539 CNS = system: SF-539 CNS
NCI-H226 lung = system: NCI-H226 lung
A549 NSCLC = system: A549 NSCLC
UACC-257 melanoma = system: UACC-257 melanoma
NCI-H522 lung = system: NCI-H522 lung
SF-295 CNS = system: SF-295 CNS
HCT-15 colon = system: HCT-15 colon
UACC-62 melanoma = system: UACC-62 melanoma
ACHN renal = system: ACHN renal
HCT-116 colon = system: HCT-116 colon
MOLT-4 leukemia = system: MOLT-4 leukemia
SR leukemia = system: SR leukemia
K-562 leukemia = system: K-562 leukemia
TK-10 renal = system: TK-10 renal
SN12C renal = system: SN12C renal
DU-145 prostate = system: DU-145 prostate
T-47D breast = system: T-47D breast

O=S(=O)(Oc1ccc2ccccc2c1-c1c(OS(=O)(=O)C(F)(F)F)ccc2ccccc12)C(F)(F)F
8.3 µM: TGI (UACC-257 melanoma)
> 100 µM: TGI (HT29 colon) | TGI (RPMI-8226 leukemia) | TGI (OVCAR-4 ovarian) | TGI (HCC-2998 colon) | TGI (SNB-19 CNS) | TGI (U251 CNS) | TGI (A498 renal) | TGI (SNB-75 CNS) | TGI (PC-3 prostate) | TGI (CAKI-1 renal) | TGI (SK-MEL-28 melanoma) | TGI (NCI-H460 lung) | TGI (NCI-H23 lung) | TGI (SF-268 CNS) | TGI (SK-MEL-2 melanoma) | TGI (IGROV1 ovarian) | TGI (M14 melanoma) | TGI (MALME-3M melanoma) | TGI (SK-MEL-5 melanoma) | TGI (MDA-MB-231 breast) | TGI (786-0 renal) | TGI (COLO 205 colon) | TGI (NCI/ADR-RES ovarian) | TGI (RXF 393 renal) | TGI (OVCAR-5 ovarian) | TGI (HS 578T breast) | TGI (HOP-62 NSCLC) | TGI (OVCAR-3 ovarian) | TGI (OVCAR-8 ovarian) | TGI (BT-549 breast) | TGI (SW-620 colon) | TGI (SK-OV-3 ovarian) | TGI (UO-31 renal) | TGI (HL-60(TB) leukemia) | TGI (MDA-MB-435) | TGI (KM12 colon) | TGI (EKVX NSCLC) | TGI (MCF7 breast) | TGI (CCRF-CEM leukemia) | TGI (SF-539 CNS) | TGI (NCI-H226 lung) | TGI (A549 NSCLC) | TGI (NCI-H522 lung) | TGI (SF-295 CNS) | TGI (HCT-15 colon) | TGI (UACC-62 melanoma) | TGI (ACHN renal) | TGI (HCT-116 colon) | TGI (MOLT-4 leukemia) | TGI (SR leukemia) | TGI (K-562 leukemia)
34.2 µM: TGI (HOP-92 NSCLC)

COc1cc(/C=C/c2cc(O)c(C/C=C(\C)CC/C=C(\C)CO)c(O)c2)cc2c1O[C@]1(C)CC[C@@H](O)C(C)(C)[C@H]1C2
> 93.7 µM: TGI (NCI-H23 lung)
11.1 µM: TGI (SF-539 CNS)
> 89 µM: TGI (HOP-62 NSCLC)
> 71.4 µM: TGI (ACHN renal)
5.69 µM: TGI (HL-60(TB) leukemia)
> 72.4 µM: TGI (HCT-15 colon)
> 79.6 µM: TGI (MDA-MB-435)
46.5 µM: TGI (HCT-116 colon)
3.72 µM and 19 µM: TGI (M14 melanoma)
inactive: GI50 (HT29 colon) 31.1 µM | GI50 (OVCAR-4 ovarian) 32.5 µM | GI50 (HCC-2998 colon) 12 µM | GI50 (SNB-19 CNS) > 91.9 µM | GI50 (SNB-75 CNS) 55 µM | GI50 (CAKI-1 renal) 9.36 µM | GI50 (SK-MEL-28 melanoma) > 58.3 µM | GI50 (NCI-H23 lung) 4.93 µM and 20.5 µM | GI50 (SK-MEL-2 melanoma) > 100 µM | GI50 (IGROV1 ovarian) > 100 µM | GI50 (M14 melanoma) 0.486 µM and 3.68 µM | GI50 (MDA-MB-231 breast) 31 µM | GI50 (COLO 205 colon) 3.21 µM and 15.6 µM | GI50 (OVCAR-5 ovarian) > 100 µM | GI50 (HOP-62 NSCLC) 7.06 µM and 12.9 µM | GI50 (OVCAR-3 ovarian) > 29.3 µM | GI50 (OVCAR-8 ovarian) > 53.3 µM | GI50 (BT-549 breast) 4.14 µM | GI50 (SK-OV-3 ovarian) > 100 µM | GI50 (HL-60(TB) leukemia) 0.511 µM | GI50 (MDA-MB-435) 38.4 µM | GI50 (SF-539 CNS) 3.4 µM | GI50 (DU-145 prostate) 26.4 µM | GI50 (A549 NSCLC) 3.96 µM and 9.59 µM | GI50 (UACC-257 melanoma) > 100 µM | GI50 (SF-295 CNS) 1.1 µM | GI50 (T-47D breast) > 62.4 µM
> 82.3 µM: TGI (OVCAR-8 ovarian)
8.3 µM and > 72.6 µM: TGI (U251 CNS)
active: GI50 (786-0 renal) 0.0172 µM and 0.13 µM
0.0949 µM: TGI (MOLT-4 leukemia)
> 62.5 µM: TGI (A549 NSCLC)
> 54.7 µM: TGI (BT-549 breast)
> 84.6 µM: TGI (HOP-92 NSCLC)
> 100 µM: TGI (HT29 colon) | TGI (OVCAR-4 ovarian) | TGI (SNB-19 CNS) | TGI (SNB-75 CNS) | TGI (PC-3 prostate) | TGI (SK-MEL-28 melanoma) | TGI (NCI-H460 lung) | TGI (SF-268 CNS) | TGI (SK-MEL-2 melanoma) | TGI (IGROV1 ovarian) | TGI (MDA-MB-231 breast) | TGI (SN12C renal) | TGI (COLO 205 colon) | TGI (NCI/ADR-RES ovarian) | TGI (RXF 393 renal) | TGI (OVCAR-5 ovarian) | TGI (SK-OV-3 ovarian) | TGI (KM12 colon) | TGI (DU-145 prostate) | TGI (NCI-H226 lung) | TGI (UACC-257 melanoma) | TGI (T-47D breast)
98.6 µM: TGI (EKVX NSCLC)
39.6 µM: TGI (HCC-2998 colon)
> 70.2 µM: TGI (OVCAR-3 ovarian)
> 42.9 µM: TGI (CAKI-1 renal)
> 93.8 µM: TGI (TK-10 renal)
